Experimental data: patent publication US20240124456A1, “AZA-ERGOLINE DERIVATIVE AND PREPARATION METHOD THEREFOR AND APPLICATION THEREOF” (SHANGHAITECH UNIVERSITY, priority 2021, published 2024)

Tests used:
dopamine D2 receptors [1] = molecular target: T1, dopamine D2 receptors (Homo sapiens (Human), UniProt P14416); assay: Radioligand competition binding, affinity for dopamine D2 receptors ([3H]-Methylspiperone); details: [3H]-Methylspiperone (0.3-0.5 nM), HEK-293T membranes; for Ki: I-1 to 19 n=3, I-20 to 27 single determination; for Affinity pKi ± SEM: n=3
Protocol: A 10 cm diameter dish was used for transfection with 10 ng of the dopamine D2 receptors and 40 μL of PEI. After 48 hours, the 10 cm dish was taken out from the cell culture room and the cultured cells had expressed the dopamine D2 receptors. A vacuum pump was used to suck off the culture medium, 3 mL of lysis buffer (50 mM Tris hydrochloric acid buffer, pH 7.4) was added to each well, and the cells were placed in a 4° C. freezer for 10 minutes. After the cells were detached, the cells were transferred to a 15 mL centrifuge tube and centrifuged at 1500 rpm for 5 minutes at 4° C., and the supernatant was discarded. The cell pellet was transferred to a tissue homogenizer, and 3 mL of lysis buffer was added and fully ground until the cells were broken. Then, cell suspension was equally divided into several EP tubes, centrifuged at 4° C. and 12000 rpm for 5 min, and the supernatant was discarded. The precipitate was the cell membrane component containing the dopamine D2 receptors and stored at −80° C.
First, a standard binding buffer (50 mM HEPES, 50 mM NaCl, 5 mM MgCl2, 0.5 mM EDTA, pH 7.4) was added to the cell membrane component containing the dopamine D2 receptors, and the cell membrane was disrupted and resuspended with an electric tissue homogenizer. 30 μL of membrane protein suspension was added to each well of a 96-well plate. Then, 30 μL of different drugs were added to the 96-well plate from left to right to ensure that the final drug concentrations were 10^−5 M, 10^−6 M, 10^−7 M, 10^−8 M, 10^−9 M and 0 M, with two replicates per treatment. Next, 30 μL [^3H]-N-Methylspiperone was added to each well of the 96-well plate, and the plate was incubated for 2 hours at room temperature in the dark. The unbound isotopes were removed by Whatman GF/C filter membrane and vacuum pump, and the isotopes bound to the receptors were detected by MicroBeta isotope liquid scintillation counter.
The affinity of the compounds of the present invention for the dopamine D2 receptors was determined by the method of radioligand competition experiment. In the first step, a cell membrane component containing specific dopamine D2 receptors was prepared. A10 cm dish was used for transfection with 10 ng of the dopamine D2 receptors and 40 μL of PEI. After 48 hours, the 10 cm dish was taken out from the cell culture room and the cultured cells had expressed the dopamine D2 receptors. A vacuum pump was used to suck off the culture medium, 3 mL of lysis buffer was added to each well, and the cells were placed in a 4° C. freezer for 10 minutes. After the cells were detached, the cells were transferred to a 15 mL centrifuge tube and centrifuged at 1500 rpm for 5 minutes at 4° C., and the supernatant was discarded. The cell pellet was transferred to a tissue homogenizer, and 3 mL of lysis buffer was added and fully ground until the cells were broken. Then, cell suspension was equally divided into several EP tubes, centrifuged at 4° C. and 12000 rpm for 5 min, and the supernatant was discarded. The precipitate was the cell membrane component containing the dopamine D2 receptors. […] First, a standard binding buffer was added to the cell membrane component containing the dopamine D2 receptors, and the cell membrane was disrupted and resuspended with an electric tissue homogenizer. 30 μL of membrane protein suspension was added to each well of a 96-well plate. Then, 30 μL of different drugs were added to the 96-well plate from left to right to ensure that the final drug concentrations were 10^−5 M, 10^−6 M, 10^−7 M, 10^−8 M, 10^−9 M and 0 M, with two replicates per treatment. Next, 30 μL [^3H]-Methylspiperone was added to each well of the 96-well plate. The plate was incubated for 2 hours at room temperature in the dark. Detection. The machine reading value reflected the amount of [^3H]-Methylspiperone bound on the membrane, and after further data processing, the affinity Ki value of different compounds for dopamine D2 receptors was obtained.

dopamine D2 receptors [2] = molecular target: T1, dopamine D2 receptors; assay: β-arrestin2 recruitment BRET, dopamine D2 receptor functional activity; assay type: cell-based; details: for Emax / β-arrestin2 BRET Emax % ± SEM: relative to the endogenous ligand dopamine; for Emax: read-out: β-arrestin2 BRET Emax % ± SEM
Protocol: To examine the downstream f3-arrestin2 signaling pathway mediated by dopamine D2 receptors, 6 cm dish was used for transfection with 500 […] of dopamine D2 receptors fused to seaweed luciferase (D2-Rluc), 500 μg of G protein-coupled receptor kinase 2 (GRK2), 2500 μg of β-arrestin2 fused to green fluorescent protein (GFP2-ARRB2) and 14 μL of transfection reagent PEI. The next day, the overgrown cells were digested and plated a 96-well plate at the amount of cells contained in a 6 cm culture dish with overgrown cells, and 100 μL of culture medium was added to each well. On the third day, the drugs were added for test.
(§1) To examine downstream G-protein signaling pathway mediated by dopamine D2 receptors, on the first day, 6 cm dish was used for transfection with 1μg of dopamine D2 receptors, 1μg of Gαi1 containing C-terminal seaweed luciferase (GGαi1-Rluc), 1 μg of […], 1 μg of Gγ9 containing C-terminal green fluorescent protein (Gγ9-GFP) and 16 μL of PEI. At the same time, in order to examine the downstream f3-arrestin2 signaling pathway mediated by dopamine D2 receptors, on the first day, 6 cm dish was used for transfection with 500 μg of dopamine D2 receptors containing C-terminal seaweed luciferase (D2-Rluc), 500 μg of G protein-coupled receptor kinase 2 (GRK2), 2500 μg of […] containing N-terminal green fluorescent protein (GFP2-ARRB2) and 14 μL of PEI. The next day, the overgrown cells were digested and plated a 96-well plate at the amount of cells contained in a 6 cm culture dish with overgrown cells, and 100 μL of culture medium was added to each well. On the third day, the drugs were added for test. The 96-well plate was taken out from the cell culture room to remove the culture medium, 40 μL of the substrate coelenterazine 400a (final concentration of 5 μM) was added to each well, and then 20 μL of different drugs were added in turn from left to right to ensure that the final concentration of the drugs decreased gradually from bottom to top, and each treatment was repeated twice. Finally, the prepared samples were loaded on machine for test. The machine reading value reflected the intracellular β-arrestin2 on the membrane and the dissociation of G protein trimer. The former indicated the degree of activation of the β-arrestin2 signaling pathway downstream of the dopamine D2 receptors, and the latter indicated the degree of activation of the G protein signaling pathway downstream of the dopamine D2 receptors.

dopamine D2 receptors [3] = molecular target: T1, dopamine D2 receptors; assay: G protein Gαi1-γ9 dissociation BRET, dopamine D2 receptor functional activity; assay type: cell-based; details: for Emax / Gai1 BRET Emax % ± SEM: relative to the endogenous ligand dopamine; for Emax: read-out: Gai1 BRET Emax % ± SEM
Protocol: To examine downstream G protein signaling mediated by dopamine D2 receptors, 6 cm dish was used for transfection with 1μg of dopamine D2 receptors, 1μg of Gαi1 fused to seaweed luciferase (Gαi1-Rluc), 1 μg of Gβ3, 1 μg of Gγ9 fused to green fluorescent protein (Gγ9-GFP) and 16 μL of transfection reagent PEI. […] On the third day, the drugs were added for test.
as §1

[4] = HEK-293T, I-1 to 19 n=3, I-20 to 27 single determination, read-out: β-arrestin2 BRET EC50
[5] = HEK-293T, I-1 to 19 n=3, I-20 to 27 single determination, read-out: Gai1 BRET EC50
[6] = n=3, read-out: β-arrestin2 BRET pEC50 ± SEM (converted)
[7] = n=3, read-out: Gai1 BRET pEC50 ± SEM (converted)

T1 sequence (P14416 whole entry): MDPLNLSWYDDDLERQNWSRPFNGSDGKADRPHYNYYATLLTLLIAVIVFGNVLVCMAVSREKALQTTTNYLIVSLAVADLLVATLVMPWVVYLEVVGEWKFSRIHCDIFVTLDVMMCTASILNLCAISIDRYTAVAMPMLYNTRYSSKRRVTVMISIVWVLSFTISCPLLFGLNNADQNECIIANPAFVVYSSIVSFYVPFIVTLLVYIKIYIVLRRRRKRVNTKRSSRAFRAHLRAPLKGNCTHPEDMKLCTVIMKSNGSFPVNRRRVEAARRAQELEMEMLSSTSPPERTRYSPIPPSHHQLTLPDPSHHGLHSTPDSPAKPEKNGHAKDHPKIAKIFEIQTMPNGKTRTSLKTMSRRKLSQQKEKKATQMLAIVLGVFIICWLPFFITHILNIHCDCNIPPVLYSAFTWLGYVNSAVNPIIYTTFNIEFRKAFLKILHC

SMILES	Ki (dopamine D2 receptors [1])	Affinity pKi ± SEM (dopamine D2 receptors [1])	EC50 (dopamine D2 receptors [2]; [4])	Emax (dopamine D2 receptors [2])	EC50 (dopamine D2 receptors [3]; [5])	Emax (dopamine D2 receptors [3])	EC50 (dopamine D2 receptors [2]; [6])	EC50 (dopamine D2 receptors [3]; [7])	β-arrestin2 BRET Emax % ± SEM (dopamine D2 receptors [2])	Gai1 BRET Emax % ± SEM (dopamine D2 receptors [3])	β-arrestin2 BRET pEC50 ± SEM (dopamine D2 receptors [2]; n=3)	Gai1 BRET pEC50 ± SEM (dopamine D2 receptors [3]; n=3)
Cn1cc2c3c(cccc31)N1CCN(CCCCOc3ccc4ccc(=O)[nH]c4c3)CC1C2 (centres unmarked) [Compound I-18, 7-(4-(4-methyl-4,6,6a,7,9,10-hexahydro-8H-pyrazino[1,2-a]pyrrolo[4,3,2-de]quinolin-8-yl)butoxy)quinolin-2(1H)-one]	61 nM	(7.22 ± 0.02)	110 nM	50%	11 nM	77%						
Cc1nc2cc(OCCCCN3CCN4c5cccc6[nH]cc(c56)CC4C3)ccc2o1 (centres unmarked) [Compound I-4, 5-(4-(4,6,6a,7,9,10-hexahydro-8H-pyrazino[1,2-a]pyrrolo[4,3,2-de]quinolin-8-yl)butoxy)-2-methylbenzo[d]oxazole]	30.3 nM	(7.52 ± 0.08)	71 nM	66%	6.68 nM	80%						
O=S(=O)(N[C@H]1CC[C@H](CCN2CCN3c4cccc5[nH]cc(c45)CC3C2)CC1)c1ccccc1 (some centres unmarked) [Compound I-15, N-(4-(2-(4,6,6a,7,9,10-hexahydro-8H-pyrazino[1,2-a]pyrrolo[4,3,2-de]quinolin-8-yl)ethyl)cyclohexyl)phenylsulfonamide]	77.5 nM	(7.11 ± 0.12)	31.5 nM	80%	2.65 nM	94%						
O=C(N[C@H]1CC[C@H](CCN2CCN3c4cccc5[nH]cc(c45)CC3C2)CC1)c1cc2ccccc2[nH]1 (some centres unmarked) [Compound I-13]	16.3 nM	(7.79 ± 0.07)	146 nM		6.74 nM				48 ± 8%	92 ± 3%	6.84 ± 0.12	8.17 ± 0.08
O=C(N[C@H]1CC[C@H](CCN2CCN3c4cccc5[nH]cc(c45)CC3C2)CC1)c1ccccc1 (stereo partly drawn) [Compound I-14, N-(4-(2-(4,6,6a,7,9,10-hexahydro-8H-pyrazino[1,2-a]pyrrolo[4,3,2-de]quinolin-8-yl)ethyl)trans-cyclohexyl)benzamide]	40.7 nM	(7.39 ± 0.05)	27.7 nM	41%	1.67 nM	72%						

Further lines, with some results ahead:

Ki (dopamine D2 receptors [1])	Affinity pKi ± SEM (dopamine D2 receptors [1])	EC50 (dopamine D2 receptors [2]; [4])	Emax (dopamine D2 receptors [2])	EC50 (dopamine D2 receptors [3]; [5])	Emax (dopamine D2 receptors [3])	EC50 (dopamine D2 receptors [2]; [6])	EC50 (dopamine D2 receptors [3]; [7])	SMILES	β-arrestin2 BRET Emax % ± SEM (dopamine D2 receptors [2])	Gai1 BRET Emax % ± SEM (dopamine D2 receptors [3])	β-arrestin2 BRET pEC50 ± SEM (dopamine D2 receptors [2]; n=3)	Gai1 BRET pEC50 ± SEM (dopamine D2 receptors [3]; n=3)
403 nM	(6.40 ± 0.12)	275 nM	97%	138 nM	104%			O=C1CCc2ccc(OCCCN3CCN4c5cccc6[nH]cc(c56)CC4C3)cc2N1 (centres unmarked) [Compound I-7, 7-(3-(4,6,6a,7,9,10-hexahydro-8H-pyrazino[1,2-a]pyrrolo[4,3,2-de]quinolin-8-yl)propoxy)-3,4-dihydroquinolin-2(1H)-one]				
8.87 nM			89%	1 nM	95%	15.8 nM	0.851 nM	O=c1ccc2ccc(OCCCCN3CCN4c5cccc6[nH]cc(c56)CC4C3)cc2[nH]1 (single isomer, unassigned; (+)) [(+)-I-2]				
52.7 nM	(7.28 ± 0.15)		34%	4 nM	71%	28.8 nM	4.17 nM	CN(C)C(=O)N[C@H]1CC[C@H](CCN2CCN3c4cccc5c4c(cn5C)CC3C2)CC1 (stereo partly drawn) [Compound I-19, 1,1-dimethyl-3-(4-(2-(4-methyl-4,6,6a,7,9,10-hexahydro-8H-pyrazino[1,2-a]pyrrolo[4,3,2-de]quinolin-8-yl)ethyl)trans-cyclohexyl)urea]				
1.75 nM				3 nM		18.2 nM	2.75 nM	O=c1ccc2ccc(OCCCCN3CCN4c5cccc6[nH]cc(c56)CC4C3)cc2[nH]1 (single isomer, unassigned; (-)) [(−)-I-2]	76 ± 2%	91 ± 3%		
51.6 nM	(7.29 ± 0.10)	61.6 nM	61%	6.64 nM	86%			c1cc2c3c(c[nH]c3c1)CC1CN(CCCCOc3ccc4c(c3)OCC4)CCN21 (centres unmarked) [Compound I-6, 8-(4-((2,3-dihydrobenzofuran-6-yl)oxy)butyl)-6,6a,7,8,9,10-hexahydro-4H-pyrazino[1,2-a]pyrrolo[4,3,2-de]quinoline]				
0.49 nM	(9.31 ± 0.15)	110 nM	98%	38.9 nM	94%			O=c1ccc2ccc(OCCCN3CCN4c5cccc6[nH]cc(c56)CC4C3)cc2[nH]1 (centres unmarked) [Compound I-8, 7-(3-(4,6,6a,7,9,10-hexahydro-8H-pyrazino[1,2-a]pyrrolo[4,3,2-de]quinolin-8-yl)propoxy)quinolin-2(1H)-one]				
100 nM		294 nM	36%	54.8 nM	38%			Cn1cc2c3c(cccc31)N1CCN(C/C=C/COc3ccc4ccc(=O)[nH]c4c3)CC1C2 (centres unmarked) [Compound I-23, (E)-7-((4-(4-methyl-4,6,6a,7,9,10-hexahydro-8H-pyrazino[1,2-a]pyrrolo[4,3,2-de]quinolin-8-yl)-2-buten-1-yl)oxy)quinolin-2(1H)-one]				
